From patent US12116343B2, “Inhibitors of APOL1 and methods of using same” (Vertex Pharmaceuticals Incorporated, priority 2020, dated 2024)

Biological target: T1, G1 APOL1 (Homo sapiens, UniProt O14791, I384M/S342G)
T1 construct: expressed in transfected cells
T1 sequence (O14791 28-398 S342G/I384M): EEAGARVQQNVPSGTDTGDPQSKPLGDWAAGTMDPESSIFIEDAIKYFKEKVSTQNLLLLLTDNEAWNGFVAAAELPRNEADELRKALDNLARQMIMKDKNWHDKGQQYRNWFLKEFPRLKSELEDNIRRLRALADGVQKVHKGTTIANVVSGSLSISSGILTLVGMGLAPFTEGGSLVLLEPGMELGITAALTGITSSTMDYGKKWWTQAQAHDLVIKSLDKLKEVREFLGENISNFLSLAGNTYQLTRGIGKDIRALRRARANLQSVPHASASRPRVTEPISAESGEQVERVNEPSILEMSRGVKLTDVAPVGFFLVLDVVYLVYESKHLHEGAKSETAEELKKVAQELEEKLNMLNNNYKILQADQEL
Test: Acute APOL1 Thallium Assay with inducible stable clones of HEK 293 cells
Format: cell-based
Settings: HEK 293 T-Rex cells expressing G1 APOL1; read-out: Thallium Assay (IC50)
Method in brief: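 Tetracycline-inducible HEK293 T-Rex clone G1 DC3.25 expressing G1 APOL1, plated at 26000 cells/well in Opti-MEM with tetracycline induction. APOL1 pore activity read on FLIPR as fluorescence increase from Tl+ influx into cells loaded with a Tl+-sensitive AM-ester dye.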

IC50 [µM] | Structure (SMILES)
0.25 to 1 | CNC(=O)C(C)NC(=O)[C@H]1C[C@H](c2c(-c3ccc(F)cc3)[nH]c3c(F)cc(F)cc32)C1 (mixture of isomers) [Compound 9]
> 1 | CC(C)N(CCO)C(=O)[C@H]1C[C@H](c2c(-c3ccc(F)cc3)[nH]c3c(F)cc(F)cc32)C1 [Compound 123]
0.25 to 1 | CN1CCC(NC(=O)[C@H]2C[C@H](c3c(-c4ccc(F)cc4)[nH]c4c(F)cc(F)cc43)C2)C1=O (stereo partly drawn) [Compound 7]
> 1 | O=C([C@H]1C[C@H](c2c(-c3ccc(F)cc3)[nH]c3c(F)cc(F)cc32)C1)N1CC(O)C(CO)C1 (stereo partly drawn) [Compound 138]
> 1 | O=C([C@H]1C[C@H](c2c(-c3ccc(F)cc3)[nH]c3c(F)cc(F)cc32)C1)N1CCO[C@H](CO)C1 [Compound 118]
0.25 to 1 | NC(=O)[C@H](CO)NC(=O)[C@H]1C[C@H](c2c(-c3ccc(F)cc3)[nH]c3c(F)cc(F)cc32)C1 [Compound 144]
> 1 | O=C1CC[C@@H](NC(=O)[C@H]2C[C@H](c3c(-c4ccc(F)cc4)[nH]c4c(F)cc(F)cc43)C2)C1 [Compound 157]
0.25 to 1 | C[C@@H](O)[C@@H](CO)NC(=O)[C@H]1C[C@H](c2c(-c3ccc(F)cc3)[nH]c3c(F)cc(F)cc32)C1 [Compound 160]
> 1 | CN(C)C[C@@H]1CCN(C(=O)[C@H]2C[C@H](c3c(-c4ccc(F)cc4)[nH]c4c(F)cc(F)cc43)C2)C[C@H]1O [Compound 110]
> 1 | O=C([C@H]1C[C@H](c2c(-c3ccc(F)cc3)[nH]c3c(F)cc(F)cc32)C1)N1CCCC[C@@H]1CCO [Compound 156]
< 0.25 | O=C1C[C@H](NC(=O)[C@H]2C[C@H](c3c(-c4ccc(F)cc4)[nH]c4c(F)cc(F)cc43)C2)C(=O)N1 [Compound 165]
> 1 | O=C([C@H]1C[C@H](c2c(-c3ccc(F)cc3)[nH]c3c(F)cc(F)cc32)C1)N1C2CCC(C2)C1CO (stereo partly drawn) [Compound 97]
> 1 | CC1(C)CN(C(=O)[C@H]2C[C@H](c3c(-c4ccc(F)cc4)[nH]c4c(F)cc(F)cc43)C2)CCN1C(=O)[C@H]1C[C@@](C)(O)C1 [Compound 130]
> 1 | O=C([C@H]1C[C@H](c2c(-c3ccc(F)cc3)[nH]c3c(F)cc(F)cc32)C1)N1C[C@H]2C[C@@]2(CO)C1 [Compound 98]
< 0.25 | O=C(NCCOCCO)[C@H]1C[C@H](c2c(-c3ccc(F)cc3)[nH]c3c(F)cc(F)cc32)C1 [Compound 125]
0.25 to 1 | O=C1NCC[C@@H]1NC(=O)[C@H]1C[C@H](c2c(-c3ccc(F)cc3)[nH]c3c(F)cc(F)cc32)C1 [Compound 162]
> 1 | O=C([C@H]1C[C@H](c2c(-c3ccc(F)cc3)[nH]c3c(F)cc(F)cc32)C1)N1CCOC(CO)C1 (stereo partly drawn) [Compound 148]
> 1 | CO[C@H]1CCN(C(=O)[C@H]2C[C@H](c3c(-c4ccc(F)cc4)[nH]c4c(F)cc(F)cc43)C2)C1 [Compound 95]
> 1 | O=C([C@H]1C[C@H](c2c(-c3ccc(F)cc3)[nH]c3c(F)cc(F)cc32)C1)N1CCCCC1CO (stereo partly drawn) [Compound 145]
0.25 to 1 | O=C([C@H]1C[C@H](c2c(-c3ccc(F)cc3)[nH]c3c(F)cc(F)cc32)C1)N1CCOC(O)C1 (stereo partly drawn) [Compound 115]

IC50 [µM] | Structure (SMILES)
> 1 | O=C([C@H]1C[C@H](c2c(-c3ccc(F)cc3)[nH]c3c(F)cc(F)cc32)C1)N1CCCC(O)C1 (stereo partly drawn) [Compound 150]
> 1 | CCN(C(=O)[C@H]1C[C@H](c2c(-c3ccc(F)cc3)[nH]c3c(F)cc(F)cc32)C1)C(C)CO (mixture of isomers) [Compound 111]
> 1 | O=C([C@H]1C[C@H](c2c(-c3ccc(F)cc3)[nH]c3c(F)cc(F)cc32)C1)N1CC(O)C(N2CCOCC2)C1 (stereo partly drawn) [Compound 106]
0.25 to 1 | CCN(CCO)C(=O)[C@H]1C[C@H](c2c(-c3ccc(F)cc3)[nH]c3c(F)cc(F)cc32)C1 [Compound 124]
> 1 | CC1(C)CN(C(=O)[C@H]2C[C@H](c3c(-c4ccc(F)cc4)[nH]c4c(F)cc(F)cc43)C2)CC1O (stereo partly drawn) [Compound 102]
0.25 to 1 | C[C@H](CO)N(C)C(=O)[C@H]1C[C@H](c2c(-c3ccc(F)cc3)[nH]c3c(F)cc(F)cc32)C1 [Compound 142]
> 1 | O=C([C@H]1C[C@H](c2c(-c3ccc(F)cc3)[nH]c3c(F)cc(F)cc32)C1)N1CCCC1CCO (stereo partly drawn) [Compound 101]
0.25 to 1 | O=C(N[C@H](CO)C(F)(F)F)[C@H]1C[C@H](c2c(-c3ccc(F)cc3)[nH]c3c(F)cc(F)cc32)C1 [Compound 164]
> 1 | O=C([C@H]1C[C@H](c2c(-c3ccc(F)cc3)[nH]c3c(F)cc(F)cc32)C1)N1CCCC(CO)C1 (stereo partly drawn) [Compound 147]
> 1 | O=C([C@H]1C[C@H](c2c(-c3ccc(F)cc3)[nH]c3c(F)cc(F)cc32)C1)N1CC[C@H](CO)[C@H](O)C1 [Compound 100]
> 1 | CN(CC(O)CO)C(=O)[C@H]1C[C@H](c2c(-c3ccc(F)cc3)[nH]c3c(F)cc(F)cc32)C1 (stereo partly drawn) [Compound 158]
> 1 | O=C([C@H]1C[C@H](c2c(-c3ccc(F)cc3)[nH]c3c(F)cc(F)cc32)C1)N1CCCC(CCO)C1 (stereo partly drawn) [Compound 128]
0.25 to 1 | O=C(NCCCO)[C@H]1C[C@H](c2c(-c3ccc(F)cc3)[nH]c3c(F)cc(F)cc32)C1 [Compound 104]
> 1 | O=C([C@H]1C[C@H](c2c(-c3ccc(F)cc3)[nH]c3c(F)cc(F)cc32)C1)N(CCOCCO)C1CCC1 [Compound 121]
0.25 to 1 | O=C(N[C@@H](CO)C(F)(F)F)[C@H]1C[C@H](c2c(-c3ccc(F)cc3)[nH]c3c(F)cc(F)cc32)C1 [Compound 163]
0.25 to 1 | CC(O)CNC(=O)[C@H]1C[C@H](c2c(-c3ccc(F)cc3)[nH]c3c(F)cc(F)cc32)C1 (stereo partly drawn) [Compound 167]
< 0.25 | O=C(NC(CO)CO)[C@H]1C[C@H](c2c(-c3ccc(F)cc3)[nH]c3c(F)cc(F)cc32)C1 [Compound 8]
0.25 to 1 | O=C([C@H]1C[C@H](c2c(-c3ccc(F)cc3)[nH]c3c(F)cc(F)cc32)C1)N1CCC[C@@H](O)C1 [Compound 149]
0.25 to 1 | O=C(NCc1cnco1)[C@H]1C[C@H](c2c(-c3ccc(F)cc3)[nH]c3c(F)cc(F)cc32)C1 [Compound 170]
> 1 | CC(CO)N1CCN(C(=O)[C@H]2C[C@H](c3c(-c4ccc(F)cc4)[nH]c4c(F)cc(F)cc43)C2)CC1 (mixture of isomers) [Compound 122]

IC50 [µM] | Structure (SMILES)
> 1 | O=C([C@H]1C[C@H](c2c(-c3ccc(F)cc3)[nH]c3c(F)cc(F)cc32)C1)N1CCCC[C@H]1CO [Compound 146]
0.25 to 1 | O=C(NC1CC(O)C1)[C@H]1C[C@H](c2c(-c3ccc(F)cc3)[nH]c3c(F)cc(F)cc32)C1 (stereo partly drawn) [Compound 5]
> 1 | O=C([C@H]1C[C@H](c2c(-c3ccc(F)cc3)[nH]c3c(F)cc(F)cc32)C1)N(CCO)CCCO [Compound 117]
0.25 to 1 | CC(C)(NC(=O)[C@H]1C[C@H](c2c(-c3ccc(F)cc3)[nH]c3c(F)cc(F)cc32)C1)C(N)=O [Compound 11]
> 1 | O=C([C@H]1C[C@H](c2c(-c3ccc(F)cc3)[nH]c3c(F)cc(F)cc32)C1)N1CCC[C@H](O)C1 [Compound 105]
> 1 | O=C([C@H]1C[C@H](c2c(-c3ccc(F)cc3)[nH]c3c(F)cc(F)cc32)C1)N1CCOCC1CCO (stereo partly drawn) [Compound 113]
< 0.25 | O=C1C[C@@H](NC(=O)[C@H]2C[C@H](c3c(-c4ccc(F)cc4)[nH]c4c(F)cc(F)cc43)C2)C(=O)N1 [Compound 166]
> 1 | CCC1(O)CN(C(=O)[C@H]2C[C@H](c3c(-c4ccc(F)cc4)[nH]c4c(F)cc(F)cc43)C2)C1 [Compound 112]
0.25 to 1 | O=C(NCc1cocn1)[C@H]1C[C@H](c2c(-c3ccc(F)cc3)[nH]c3c(F)cc(F)cc32)C1 [Compound 168]
> 1 | CC(O)C1CCCN(C(=O)[C@H]2C[C@H](c3c(-c4ccc(F)cc4)[nH]c4c(F)cc(F)cc43)C2)C1 (stereo partly drawn) [Compound 131]
> 1 | O=C(NCC1(O)CCC1)[C@H]1C[C@H](c2c(-c3ccc(F)cc3)[nH]c3c(F)cc(F)cc32)C1 [Compound 143]
> 1 | O=C([C@H]1C[C@H](c2c(-c3ccc(F)cc3)[nH]c3c(F)cc(F)cc32)C1)N1CCN[C@H](CO)C1 [Compound 161]
> 1 | O=C([C@H]1C[C@H](c2c(-c3ccc(F)cc3)[nH]c3c(F)cc(F)cc32)C1)N1CCCC[C@@H]1CO [Compound 107]
> 1 | O=C([C@H]1C[C@H](c2c(-c3ccc(F)cc3)[nH]c3c(F)cc(F)cc32)C1)N1CCC(CCO)CC1 [Compound 134]
> 1 | CN(CC1(CO)CCOCC1)C(=O)[C@H]1C[C@H](c2c(-c3ccc(F)cc3)[nH]c3c(F)cc(F)cc32)C1 [Compound 120]
> 1 | O=C([C@H]1C[C@H](c2c(-c3ccc(F)cc3)[nH]c3c(F)cc(F)cc32)C1)N1CCC2(COC2)C1 [Compound 103]
> 1 | O=C([C@H]1C[C@H](c2c(-c3ccc(F)cc3)[nH]c3c(F)cc(F)cc32)C1)N1CC2(CC(O)C2)C1 [Compound 137]
> 1 | O=C([C@H]1C[C@H](c2c(-c3ccc(F)cc3)[nH]c3c(F)cc(F)cc32)C1)N(CCO)c1cnccn1 [Compound 132]
0.25 to 1 | O=C1CC[C@H](NC(=O)[C@H]2C[C@H](c3c(-c4ccc(F)cc4)[nH]c4c(F)cc(F)cc43)C2)C1 [Compound 139]
> 1 | NC(=O)C1CCN(C(=O)[C@H]2C[C@H](c3c(-c4ccc(F)cc4)[nH]c4c(F)cc(F)cc43)C2)CC1 [Compound 133]
